Earlier results as cited in US6420361B1, “Soil pesticide” (priority 1999, dated 2002).

Compound: CN1CSC(=S)N(C)C1 [TDTT, tetrahydro-3,5-dimethyl-2H-1,3,5-thiadiazine-2-thione]
- Solubility and stability in commonly used agricultural solvents or carriers: not very soluble or stable
- Concentration limit in liquid formulation (applied as a liquid formulation): less than 15 % by weight
